According to US20250163522A1, “METHODS FOR PRESERVING HEALTHY INTESTINAL MICROBIOME DURING GROWTH PROMOTER ADMINSTRATION” (BIOMEDIT, LLC, priority 2022, published 2025):
“Also recorded” adds a separate entry of the source.

Columns and labels:
Assay type in all cases: in vivo, chickens (Gallus gallus)
cecal microbiome [1] = assay: Shotgun metagenomics (functional/taxonomic profiles, GSEA) of cecal microbiome, day 35 broilers; settings: for functional processes enriched in cecal microbiome relative to controls (GSEA): day 35 cecal samples
Procedure: 74 frozen cecal samples from day 35 birds were sent to CosmosID (Rockville, MD) for shotgun metagenomics sequencing. DNA was extracted using the ZymoBIOMICS DNA Miniprep Kit (ZymoBIOMICS, Irvine, CA) according to the manufacturers protocol. The isolated DNA was quantified by Qbit (ThermoFisher, Coon Rapids, MN). DNA libraries were prepared using the Illumina Nextera XT library preparation kit (Illumina, San Diego, CA), with a modified protocol. Libraries were then sequenced on an Illumina HiSeq platform 2×150 bp.
Reads were trimmed and Illumina adapters removed using Trimmomatic (v 0.39) (Bolger et al., Bioinformatics 30, 2114-2120 (2014)) with options SLIDINGWINDOW:5:20 LEADING:3 TRAILING:3. Host reads (Gallus gallus, GenBank assembly GCA_000002315) and spike-in reads from Vibrio harveyii (ATCC 14126) were removed using Bowtie2 (v. 2.3.5.1) (Langmead et al., Nat Methods 9, 357-359 (2012)).
Taxonomic profiling of individual reads was carried out using Kaiju (v. 1.7.3) (Menzel et al., Nat Commun 7, 11257 (2016)) with the nr_euk database. Kaiju outputs were summarized for each read as the number of bases aligned to proteins in the reference database. In cases of individual reads mapping to more than one taxonomic group, the number of bases assigned to each taxon was calculated as the alignment length (in base pairs) multiplied by the fraction of bases assigned unambiguously to said taxon out of all the taxa to which the read mapped. The numbers of assigned bases per read were used to estimate species-level relative abundances using metametamerge (v. 1.1) (Piro, V. C., et al., Microbiome 5, 101 (2017).) taking into account the average coding length per species in the nr_euk database.
Functional profiling was done by first assembling the reads from each sample into contigs using Spades (v. 3.13.1, option --meta) (Nurk, S. et al., Genome Res 27, 824-834 (2017)), with default parameters, followed by protein prediction with Prokka (v. 1.14.5) (Seemann, T. Prokka: Bioinformatics 30, 2068-2069 (2014).). Predicted protein sequences were aligned to a reference database and using Diamond (v. 0.9.30) (Buchfink, B. et al. Nat Methods 18, 366-368 (2021)) and annotated based on the function assigned to the top hit in the database. To avoid misannotations, (Plata, G. et al. Nat Chem Biol 8, 848-854 (2012)) the inventors only considered hits with at least 70% identity and 70% query coverage. The reference database was built starting from 46,181 complete bacterial genomes downloaded from the PATRIC (Davis, J. J. et al. Nucleic Acids Res 48, D606-D612 (2020)) database representing at most 10 genomes per species from ˜400 taxonomic families including those most frequently observed in broiler microbiomes. To speed up functional annotations, protein sequences within each family in the database were clustered at 90% sequence identity using CD-HIT (v. 4.8.1) (Huang, Y. et al. Bioinformatics 26, 680-682 (2010)) and the longest sequence from each cluster was kept for the diamond search.
To quantify the abundance of each function per sample, reads were mapped to the corresponding contigs using BWA (v. 0.7.17) (Li, H. & Durbin, R. Bioinformatics 25, 1754-1760 (2009)), and reads mapping to each predicted protein were counted with HTseq (v. 0.11.3) (Anders, S. et al. Bioinformatics 31, 166-169 (2015)). Read counts per RAST functional role were TPM normalized based on the Prokka protein lengths (Zhao, S. et. al. RNA 26, 903-909 (2020)) and expressed in units of mean copy numbers per genome by calculating a normalization factor such that the median abundance of a set of universal-single copy bacterial genes (Creevey, C. J. et al. PLOS One 6, e22099 (2011)) was set to 1 (Manor, O. & Borenstein, E. Genome Biology 16, 53 (2015)). A similar procedure was used to produce a copy-number normalized matrix of functional roles across samples stratified by the bacterial genera of the protein hits used to transfer functional annotations. […]

cecal microbiome [2] = assay: 16S rRNA amplicon profiling of cecal microbiome of AGP treated broilers; settings: days 21 and 35
Procedure: Total DNA from frozen cecal content samples were extracted using the Lysis and Purity kit (Shoreline Biome, Farmington, CT) following the manufacturer's protocol. The resulting DNA was used for library preparation with the Shoreline Biome V4 16S DNA Purification and Library Prep Kit (Shoreline Biome, Farmington, CT). PCR amplification of the V4 region of the 16S rRNA gene was performed using the 515F (5′[…]) and 806R (5′-[…]) primers. The resulting amplicons were then sequenced using 2×250 bp paired-end kits on the Illumina MiSeq platform.
Paired raw reads were processed with cutadapt (v. 2.5) (Martin, M. Cutadapt 2011 17, 3, doi: 10.14806/ej. 17.1.200 (2011)) followed by DADA2 (v.1.12.1) (Callahan et al., Nat Methods 13, 581-581 (2016)) to generate a matrix of read counts per sample at the level of amplicon sequence variants (ASVs). […] Reads assigned to the Vibrionaceae family were removed from the analysis, these correspond to a small amount (˜1% relative abundance) of Vibrio harveyii that was spiked in some of the samples. The mean sequencing depth after filtering was 43,955 reads per sample (standard deviation=12,391). The Chao, Simpson, and Shannon measures of alpha diversity were calculated from the matrix of raw counts using the scikit-bio (v. 0.5.6) python package and compared across treatments at each sampling time using the Mann-Whitney U test. […]

[3] = tested on: AMR genes in the cecum microbiome; assay: AMR gene abundance analysis (AMR++ pipeline) of cecal microbiome; settings: day 35 cecum; for AMR gene classes changed compared to controls: Mann-Whitney U p-value<0.05; for total number of different AMR genes detected: compared to control; for total AMR gene abundance compared to control: RPKM
Procedure: AMR gene abundances per sample were determined using the AMR++ pipeline (Lakin, S. M. et al., Nucleic Acids Res 45, D574-D580 (2017)) (v. 2.0.2) starting from the raw metagenomics sequences and using the MegaRes (v. 2.0.0) database. Only genes involved in drug resistance were considered. The AMR gene counts per sample obtained from AMR++ were expressed in unites of reads per kilobase per million reads (RPKM) based on the corresponding gene lengths from the MegaRes database. RPKM values across treatments were compared using the Mann-Whitney U test.

Ross 708 male broilers = assay: Clinical study of in-feed AGPs in broilers: weight gain and feed conversion; settings: in-feed: 50 g/ton BMD, 20 g/ton avilamycin, 16.5 g/ton virginiamycin, 70 g/ton narasin; 35 days
Description: 500 healthy Ross 708 male broilers sourced from a commercial hatchery were used in the experiment. […] Birds were individually tagged with a unique identifier and were randomly assigned to one of 25 floor pens (20 animals per pen). Groups of 5 pens were assigned to each of 5 different treatments. The 5 treatments included: 1) control birds fed least-cost diets as follows: A starter diet was fed from days 0 to 14 of the study, followed by a grower diet (14-28d) and a finisher diet (28-35d). 2) Birds fed the above diets supplemented with 50 g/ton BMD. 3) Supplemented with 20 g/ton avilamycin. 4) Supplemented with 16.5 g/ton Virginiamycin. And 5) supplemented with 70 g/ton narasin. Birds were raised for 35 days in a barn on top of used litter.
Individual body weights were collected on days 0, 7, 21 and 35. Pen weights were collected on days 14 and 28. Feed weigh backs for each pen were done on days 7, 14, 21, 28 and 35 of the study. Average bird weights and feed intake per pen were used to calculate weekly values of average daily gain and feed conversion ratios. Weekly values were compared between treatments using the Mann Whitney U test. On days 7, 21 and 35 three birds per pen were randomly selected and euthanized for the collection of cecal contents and blood. Blood was collected via wing vein venipuncture, except for birds that were too small, in which cases direct heart puncture was used. In both cases, blood was collected into vacutainer tubes and centrifuged to obtain serum. Cecal samples were collected by aseptically squeezing the cecum content into a sterile tube. Cecal samples were placed on dry ice immediately after collection. All samples were stored at −80° C. until processing.

Molecule | functional processes enriched in cecal microbiome relative to controls (GSEA) (cecal microbiome [1]) | similarity of 16S cecal microbiome composition to control samples (ANOSIM R score) (cecal microbiome [2]) | effect on AMR gene abundance profiles [3] | AMR gene classes changed compared to controls [3] | total number of different AMR genes detected [3] | impact on bird performance (Ross 708 male broilers) | total AMR gene abundance compared to control [3] | Salmonella and Escherichia relative abundance in cecum (cecal microbiome [1]; day 35) [%]
COC[C@H]1O[C@@H](OC2OC[C@@H]3O[C@]4(O[C@H]3[C@H]2OC(=O)C(C)C)O[C@H](C)[C@@](O)(C(C)=O)[C@@H]2OCO[C@H]24)[C@@H](OC)[C@@H](O)[C@@H]1O[C@@H]1O[C@H](C)[C@H](OC)[C@H](O[C@H]2C[C@@]3(C)OC4(C[C@@H](O)[C@H](O[C@H]5C[C@@H](O)[C@H](OC(=O)c6c(C)c(Cl)c(O)c(Cl)c6OC)[C@@H](C)O5)[C@@H](C)O4)O[C@@H]3[C@@H](C)O2)[C@H]1O (stereo partly drawn) [avilamycin] | protein synthesis and the Entner-Doudoroff pathway; also recorded: methionine metabolism, glycolysis, sporulation, and isoprenoid synthesis | higher similarity | minor | reduced the abundance of genes associated with resistance to nucleosides and macrolides | higher | smallest effects on performance | – | –
Bacitracin methylene disalicylate [BMD] | biotin synthesis; also recorded: propanediol utilization, molybdenum-containing cofactor synthesis and CO2 fixation via the Wood-Ljungdahl pathway; also recorded: protein synthesis and the Entner-Doudoroff pathway | higher similarity | minor | – | – | smallest effects on performance | significant increase | –
virginiamycin | betaine and pyridoxine biosynthesis, stress response, bacterial secretion systems, antimicrobial resistance (AMR), and biosynthesis of Gram-negative cell wall components | – | significantly different AMR gene abundance profiles | enriched (Mann-Whitney U p-value<0.05) for genes involved in resistance to multiple drugs | higher | increased performance compared to controls | significant increase | ~50
